Assay type in all cases: biochemical
The target of one test is T1, JAK3 (Homo sapiens, UniProt P52333).
T1 sequence (P52333 1-1124): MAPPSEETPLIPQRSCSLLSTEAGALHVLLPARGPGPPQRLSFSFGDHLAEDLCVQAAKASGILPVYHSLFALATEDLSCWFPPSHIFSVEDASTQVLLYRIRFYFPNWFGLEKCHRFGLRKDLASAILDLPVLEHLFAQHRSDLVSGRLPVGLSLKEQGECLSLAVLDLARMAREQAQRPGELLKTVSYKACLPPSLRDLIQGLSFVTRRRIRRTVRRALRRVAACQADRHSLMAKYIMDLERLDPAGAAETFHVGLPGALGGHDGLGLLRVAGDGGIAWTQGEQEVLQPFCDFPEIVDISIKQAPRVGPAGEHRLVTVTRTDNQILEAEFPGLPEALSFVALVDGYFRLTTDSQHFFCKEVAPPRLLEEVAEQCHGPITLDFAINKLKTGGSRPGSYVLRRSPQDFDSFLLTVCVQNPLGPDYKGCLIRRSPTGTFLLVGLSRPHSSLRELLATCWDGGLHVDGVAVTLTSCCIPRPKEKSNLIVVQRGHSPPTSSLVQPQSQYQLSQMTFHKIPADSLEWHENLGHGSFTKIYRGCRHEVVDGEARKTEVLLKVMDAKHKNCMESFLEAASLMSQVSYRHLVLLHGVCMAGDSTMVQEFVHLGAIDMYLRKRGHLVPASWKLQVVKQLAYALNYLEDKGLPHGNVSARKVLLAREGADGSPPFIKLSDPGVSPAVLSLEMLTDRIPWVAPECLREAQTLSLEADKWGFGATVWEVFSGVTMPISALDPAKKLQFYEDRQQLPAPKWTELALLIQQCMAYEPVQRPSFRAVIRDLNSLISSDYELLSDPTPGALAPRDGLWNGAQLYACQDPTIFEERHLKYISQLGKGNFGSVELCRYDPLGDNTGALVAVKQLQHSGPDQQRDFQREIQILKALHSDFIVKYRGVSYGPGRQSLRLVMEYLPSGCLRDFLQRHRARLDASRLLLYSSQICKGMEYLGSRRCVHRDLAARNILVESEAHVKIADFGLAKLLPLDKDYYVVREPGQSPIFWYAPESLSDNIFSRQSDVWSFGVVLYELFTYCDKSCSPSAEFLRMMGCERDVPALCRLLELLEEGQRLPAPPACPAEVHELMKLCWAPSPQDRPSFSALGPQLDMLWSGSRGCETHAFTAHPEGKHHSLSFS
Put plainly: Inhibition of a panel of kinases, in vitro HotSpot kinase assay: JAK3. The settings on record: read-out: IC50 JAK3.

The next test has as its target LCK (Homo sapiens, UniProt P06239). Put plainly: Inhibition of a panel of kinases, in vitro HotSpot kinase assay: LCK. The note with it: read-out: IC50 LCK.
For the next test, the target named is T2, ITK (Homo sapiens, UniProt Q08881).
T2 sequence (Q08881 1-620): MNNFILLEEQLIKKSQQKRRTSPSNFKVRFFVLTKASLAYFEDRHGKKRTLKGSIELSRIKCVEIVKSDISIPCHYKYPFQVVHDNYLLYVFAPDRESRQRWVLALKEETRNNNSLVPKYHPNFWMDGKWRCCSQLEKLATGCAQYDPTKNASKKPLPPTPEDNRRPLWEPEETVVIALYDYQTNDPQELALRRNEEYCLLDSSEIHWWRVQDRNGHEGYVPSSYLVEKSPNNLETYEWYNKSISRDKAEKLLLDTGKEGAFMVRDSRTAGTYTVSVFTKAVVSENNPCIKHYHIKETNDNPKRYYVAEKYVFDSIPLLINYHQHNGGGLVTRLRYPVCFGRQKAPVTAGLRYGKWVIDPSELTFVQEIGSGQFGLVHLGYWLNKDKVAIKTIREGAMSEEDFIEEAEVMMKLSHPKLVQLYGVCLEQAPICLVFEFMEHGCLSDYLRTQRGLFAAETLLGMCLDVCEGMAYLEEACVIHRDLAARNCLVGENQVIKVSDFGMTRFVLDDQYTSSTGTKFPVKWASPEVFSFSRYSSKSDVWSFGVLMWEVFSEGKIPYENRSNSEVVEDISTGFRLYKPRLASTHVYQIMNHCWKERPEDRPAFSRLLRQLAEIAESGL
Put plainly: Inhibition of a panel of kinases, in vitro HotSpot kinase assay: ITK. The procedure:
The degree of inhibition of a panel of kinases is determined using the in vitro HotSpot kinase assay (purified enzymes, ^33P-ATP, an appropriate substrate and 1 μM ATP).

The mark [1] stands for this setting: Table 13, A compounds, 1 μM ATP.

SMILES strings stand for the structures. Where two headings read alike, the source gives them in different places. Where only a bound is given, the exact number is not on record here.

Sequence of LCK (P06239 whole entry): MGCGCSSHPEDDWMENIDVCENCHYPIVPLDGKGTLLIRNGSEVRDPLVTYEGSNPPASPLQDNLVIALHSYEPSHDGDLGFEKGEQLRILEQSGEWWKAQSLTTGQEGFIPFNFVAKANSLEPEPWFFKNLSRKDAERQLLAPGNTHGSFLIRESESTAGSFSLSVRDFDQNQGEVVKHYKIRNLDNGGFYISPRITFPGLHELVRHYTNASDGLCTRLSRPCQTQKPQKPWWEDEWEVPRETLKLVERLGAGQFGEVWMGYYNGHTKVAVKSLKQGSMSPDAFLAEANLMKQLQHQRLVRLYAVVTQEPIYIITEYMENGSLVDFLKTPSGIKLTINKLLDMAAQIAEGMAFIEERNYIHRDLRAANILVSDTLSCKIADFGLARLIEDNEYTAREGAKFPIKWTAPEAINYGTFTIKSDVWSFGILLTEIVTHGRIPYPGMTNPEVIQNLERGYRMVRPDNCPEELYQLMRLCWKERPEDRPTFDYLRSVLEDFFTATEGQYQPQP

As for `C[C@@H]1[C@H](NC(=O)c2ccc(C(C)(C)N3CCCC3)cc2)CCCN1c1cnc(C(N)=O)c(Nc2cnn(C)c2)n1` [Example E-143, 3-((1-methyl-1H-pyrazol-4-yl)amino)-5-((2R,3R)-2-methyl-3-(4-(2-(pyrrolidin-1-yl)propan-2-yl)benzamido)piperidin-1-yl)pyrazine-2-carboxamide], the concentration for half-maximal inhibition (IC50) at JAK3 (E compounds, Table 17) fell in the range of 100 to 1000 nM; at LCK (E compounds, Table 17), 10 to 100 nM; on ITK (E compounds, Table 17), 100 to 1000 nM.

For the compound `C[C@@H]1[C@H](NC(=O)c2ccc(C3CC3)cc2F)CCCN1c1cnc(C(N)=O)c(Nc2ccc(S(=O)(=O)N3CCN(C)CC3)cc2)n1` [Example A-156, 5-[(2R,3R)-3-(4-cyclopropyl-2-fluorobenzamido)-2-methylpiperidin-1-yl]-3-({4-[(4-methylpiperazin-1-yl)sulfonyl]phenyl}amino)pyr-azine-2-carboxamide], the concentration for half-maximal inhibition (IC50) at JAK3 (setting [1]) was greater than 10000 nM; at LCK (setting [1]) it was 1000 to 10000 nM; on ITK (setting [1]), 100 to 1000 nM.

Regarding `C[C@@H]1[C@H](NC(=O)c2ccc(C3CC3)cc2F)CCCN1c1cnc(C(N)=O)c(Nc2ccc(C3(C)CCN(C4CC4)CC3)cc2)n1` [Example A-174, 5-[(2R,3R)-3-(4-cyclopropyl-2-fluorobenzamido)-2-methylpiperidin-1-yl]-3-{[4-(1-cyclopropyl-4-methylpiperidin-4-yl)phenyl]amino}pyrazine-2-carboxamide], the IC50 on JAK3 (setting [1]) was in the range of 10 to 100 nM; at LCK (setting [1]) it was 10 to 100 nM; against ITK (setting [1]) it was 100 to 1000 nM.

As for `CN1CCN(Cc2ccc(Nc3nc(N4CCC[C@@H](n5ccc6cc(C7CC7)ccc6c5=O)C4)cnc3C(N)=O)cc2)CC1` [Example A-111, 5-[(3R)-3-(6-cyclopropyl-1-oxo-1,2-dihydroisoquinolin-2-yl)piperidin-1-yl]-3-({4-[(4-methylpiperazin-1-yl)meth-yl]phenyl}amino)pyrazine-2-carboxamide], the IC50 at JAK3 (setting [1]), on LCK (setting [1]) and at ITK (setting [1]) was 100 to 1000 nM each time.

With `Cc1cc(Nc2nc(N3CC[C@H](O)[C@@H](N4CCC[C@@H](Nc5cc(Cl)cc(C(F)(F)F)c5)C4=O)C3)nnc2C(N)=O)sn1` [Example E-10, 3-((3R,3'S,4'S)-3-(3-chloro-5-(trifluoromethyl)phenylamino)-4′-hydroxy-2-oxo-1,3′-bipiperidin-1-yl)-5-(3-methylisothiazol-5-ylamino)-1,2,4-triazine-6-carboxamide], the IC50 was 1000 to 10000 nM on JAK3 (E compounds, Table 17); less than 10 nM on LCK (E compounds, Table 17); no more than 10 nM at ITK (E compounds, Table 17).

As to `C=CC(=O)N1CCC[C@@H](Nc2nnc(C(N)=O)c(Nc3ccc(-c4ncccn4)cc3)n2)C1` [Example E-41, (R)-3-(1-acryloylpiperidin-3-ylamino)-5-(4-(pyrimidin-2-yl)phenylamino)-1,2,4-triazine-6-carboxamide], the IC50 is less than 10 nM on JAK3 (E compounds, Table 17); 100 to 1000 nM on LCK (E compounds, Table 17); 10 to 100 nM against ITK (E compounds, Table 17).

Consider `C[C@@H]1[C@H](NC(=O)c2ccc(C3CC3)cc2)CCCN1c1cnc(C(N)=O)c(Nc2cnc(C3CCOCC3)nc2)n1` [Example E-144, 5-((2R,3R)-3-(4-cyclopropylbenzamido)-2-methylpiperidin-1-yl)-3-((2-(tetrahydro-2H-pyran-4-yl)pyrimidin-5-yl)amino)pyrazine-2-carboxamide], for which the IC50 is greater than 10000 nM on JAK3 (E compounds, Table 17); 100 to 1000 nM at LCK (E compounds, Table 17); 100 to 1000 nM on ITK (E compounds, Table 17).

In the case of `C=CC(=O)N1CC[C@@H](N(C)c2cnc(C(N)=O)c(Nc3cnn(CCOC)c3)n2)C1` [Example E-110, (R)-5-((1-acryloylpyrrolidin-3-yl)(methyl)amino)-3-(1-(2-methoxyethyl)-1H-pyrazol-4-ylamino)pyrazine-2-carboxamide], the 50% inhibitory concentration (IC50) is less than 10 nM at JAK3 (E compounds, Table 17); 1000 to 10000 nM at LCK (E compounds, Table 17); no more than 10 nM against ITK (E compounds, Table 17).

As to `C[C@@H]1[C@H](NC(=O)c2ccc(C3CC3)cc2)CCCN1c1cnc(C(N)=O)c(Nc2cnn(CCN(C)C)c2)n1` [Example A-182, 5-[(2R,3R)-3-(4-cyclopropylbenzamido)-2-methylpiperidin-1-yl]-3-({1-[2-(dimethylamino)ethyl]-1H-pyrazol-4-yl}amino)pyrazine-2-carboxamide], the concentration for half-maximal inhibition (IC50) was 1000 to 10000 nM on JAK3 (setting [1]), 100 to 1000 nM on LCK (setting [1]) and 1000 to 10000 nM against ITK (setting [1]).

`C[C@@H]1[C@H](NC(=O)c2ccc(C3CC3)cc2F)CCCN1c1cnc(C(N)=O)c(Nc2ccc(N3CCN(C4CCCC4)CC3)cc2)n1` [Example A-125, 3-{[4-(4-cyclopentylpiperazin-1-yl)phenyl]amino}-5-[(2R,3R)-3-(4-cyclopropyl-2-fluorobenzamido)-2-methylpiperidin-1-yl]pyrazine-2-carboxamide]: the 50% inhibitory concentration (IC50) at JAK3 (setting [1]), on LCK (setting [1]) and against ITK (setting [1]) was 100 to 1000 nM each time.

Turning to `Cn1cc(Nc2nc(N3C[C@H](NC(=O)c4ccc(C5CC5)cc4)CC(F)(F)C3)cnc2C(N)=O)cn1` [Example A-188, (R)-5-(5-(4-cyclopropylbenzamido)-3,3-difluoropiperidin-1-yl)-3-(1-methyl-1H-pyrazol-4-ylamino)pyrazine-2-carboxamide], the IC50 at JAK3 (setting [1]) was 1000 to 10000 nM; at LCK (setting [1]) it was 100 to 1000 nM; against ITK (setting [1]) it was 1000 to 10000 nM.

With `C[C@@H]1[C@H](NC(=O)c2ccc(C3CC3)cc2F)CCCN1c1cnc(C(N)=O)c(Nc2ccc(N3CCN(C)C[C@@H]3C)cc2)n1` [Example A-176, 5-[(2R,3R)-3-(4-cyclopropyl-2-fluorobenzamido)-2-methylpiperidin-1-yl]-3-({4-[(2S)-2,4-dimethylpiperazin-1-yl]phenyl}amino)pyrazine-2-carboxamide], the IC50 is 100 to 1000 nM at JAK3 (setting [1]), 10 to 100 nM at LCK (setting [1]) and 100 to 1000 nM against ITK (setting [1]).

For `C[C@@H]1[C@H](NC(=O)c2ccc(-c3ncco3)cc2)CCCN1c1cnc(C(N)=O)c(Nc2cnn(C)c2)n1` [Example E-154, 3-((1-methyl-1H-pyrazol-4-yl)amino)-5-((2R,3R)-2-methyl-3-(4-(oxazol-2-yl)benzamido)piperidin-1-yl)pyrazine-2-carboxamide], the IC50 fell in the range of 100 to 1000 nM on JAK3 (E compounds, Table 17); 10 to 100 nM at LCK (E compounds, Table 17); 100 to 1000 nM against ITK (E compounds, Table 17).

For the compound `CN(C)C(=O)N[C@@H]1CCCN(c2cnc(C(N)=O)c(Nc3ccc(C4(C)CCN(C5CCCC5)CC4)cc3)n2)[C@@H]1CO` [Example A-101, 3-{[4-(1-cyclopentyl-4-methylpiperidin-4-yl)phenyl]amino}-5-[(2S,3R)-3-[(dimethylcarbamoyl)amino]-2-(hydroxymethyl)piperidin-1-yl]pyrazine-2-carboxamide], the half-inhibitory concentration (IC50) is 1000 to 10000 nM at JAK3 (setting [1]), 100 to 1000 nM on LCK (setting [1]) and 1000 to 10000 nM against ITK (setting [1]).

Take `C[C@@H]1[C@H](NC(=O)c2ccc(C3CC3)cc2)CCCN1c1cnc(C(N)=O)c(Nc2ccc(N3CCN(C4CCCC4)C[C@@H]3C)cc2)n1` [Example E-137, 3-((4-((S)-4-cyclopentyl-2-methylpiperazin-1-yl)phenyl)amino)-5-((2R,3R)-3-(4-cyclopropylbenzamido)-2-methyipiperidin-1-yl)pyrazine-2-carboxamide]: the IC50 on JAK3 (E compounds, Table 17) lay in the range of 1000 to 10000 nM; at LCK (E compounds, Table 17), 10 to 100 nM; against ITK (E compounds, Table 17) it was 10 to 100 nM.

One may read the IC50 as the concentration that inhibits the measured activity by half.

Source of the values: patent US20210070748A1, “INHIBITORS OF BRUTONS TYROSINE KINASE” (Pharmacyclics LLC, priority 2015, published 2021).
